Laboratory results published in patent US8637511B2, “Aminopyrimidines useful as kinase inhibitors” (Vertex Pharmaceuticals Incorporated, priority 2005, dated 2014).
Like-named read-outs stand apart in the source and are kept apart here.

Experiments:
Aurora-2 (Aurora A) = target: T1, Aurora-2 (Aurora A) (Homo sapiens, UniProt O14965); assay: Aurora-2 (Aurora A) inhibition assay, coupled enzyme; format: biochemical
T1 sequence (O14965 1-403): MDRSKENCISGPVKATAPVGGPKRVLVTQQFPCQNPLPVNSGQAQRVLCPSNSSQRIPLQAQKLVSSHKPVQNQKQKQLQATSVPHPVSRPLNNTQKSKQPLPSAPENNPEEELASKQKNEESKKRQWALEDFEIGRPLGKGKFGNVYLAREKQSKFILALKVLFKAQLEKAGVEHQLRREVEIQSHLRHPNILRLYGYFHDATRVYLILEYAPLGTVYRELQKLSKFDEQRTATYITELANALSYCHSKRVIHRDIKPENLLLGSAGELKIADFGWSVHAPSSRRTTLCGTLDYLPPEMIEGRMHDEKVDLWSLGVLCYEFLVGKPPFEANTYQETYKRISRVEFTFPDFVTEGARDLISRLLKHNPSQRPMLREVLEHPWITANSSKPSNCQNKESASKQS
Protocol: Assays were carried out in a mixture of 100 mM Hepes (pH7.5), 10 mM MgCl2, 1 mM DTT, 25 mM NaCl, 2.5 mM phosphoenolpyruvate, 300 μM NADH, 30 μg/ml pyruvate kinase and 10 μg/ml lactate dehydrogenase. […] Assays were carried out at 30° C. and in the presence of 40 nM Aurora-2.
The plate was preincubated for 10 minutes at 30° C. and the reaction initiated by addition of 10 μl of Aurora-2. Initial reaction rates were determined with a Molecular Devices SpectraMax Plus plate reader over a 10 minute time course. IC50 and Ki data were calculated from non-linear regression analysis using the Prism software package (GraphPad Prism version 3.0cx for Macintosh, GraphPad Software, San Diego Calif., USA).

Aurora-1 (Aurora B) = Aurora-1 (Aurora B) (Homo sapiens, UniProt Q96GD4); assay: Aurora-1 (Aurora B) inhibition assay (radiometric); format: biochemical; conditions: read-out: Aurora B kinase Ki value
Sequence of Aurora-1 (Aurora B) (Q96GD4 whole entry): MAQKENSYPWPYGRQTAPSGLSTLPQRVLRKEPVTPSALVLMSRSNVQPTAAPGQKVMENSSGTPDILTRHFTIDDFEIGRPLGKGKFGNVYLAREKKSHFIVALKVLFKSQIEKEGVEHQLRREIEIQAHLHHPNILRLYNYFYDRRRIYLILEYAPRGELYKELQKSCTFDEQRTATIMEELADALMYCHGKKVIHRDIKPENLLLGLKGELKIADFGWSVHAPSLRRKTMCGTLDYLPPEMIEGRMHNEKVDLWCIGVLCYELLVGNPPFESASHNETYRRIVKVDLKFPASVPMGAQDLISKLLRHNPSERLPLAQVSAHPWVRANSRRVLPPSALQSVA
Protocol: An assay buffer solution was prepared which consisted of 25 mM HEPES (pH 7.5), 10 mM MgCl2, 0.1% BSA and 10% glycerol. […] To 22 μL of the Aurora-B solution, in a 96-well plate, was added 2 μl of a compound stock solution in DMSO and the mixture allowed to equilibrate for 10 minutes at 25° C. The enzyme reaction was initiated by the addition of 16 μl stock [γ-^33P]-ATP solution (˜20 nCi/μL) prepared in assay buffer, to a final assay concentration of 800 μM. The reaction was stopped after 3 hours by the addition of 16 μL 500 mM phosphoric acid and the levels of ^33P incorporation into the peptide substrate were determined by the following method.
A phosphocellulose 96-well plate (Millipore, Cat no. MAPHNOB50) was pre-treated with 100 μL of a 100 mM phosphoric acid prior to the addition of the enzyme reaction mixture (40 μL). The solution was left to soak on to the phosphocellulose membrane for 30 minutes and the plate subsequently washed four times with 200 μL of a 100 mM phosphoric acid. […] Levels of non-enzyme catalyzed background radioactivity were determined by adding 16 μL of the 500 mM phosphoric acid to control wells, containing all assay components (which acts to denature the enzyme), prior to the addition of the [γ-^33P]-ATP solution. Levels of enzyme catalyzed. ^33P incorporation were calculated by subtracting mean background counts from those measured at each inhibitor concentration. […] Ki values were calculated from initial rate data by non-linear regression using the Prism software package (Prism 3.0, Graphpad Software, San Diego, Calif.).

JAK3 = target: T2, JAK3 (Homo sapiens, UniProt P52333); assay: biochemical
T2 sequence (P52333 1-1124): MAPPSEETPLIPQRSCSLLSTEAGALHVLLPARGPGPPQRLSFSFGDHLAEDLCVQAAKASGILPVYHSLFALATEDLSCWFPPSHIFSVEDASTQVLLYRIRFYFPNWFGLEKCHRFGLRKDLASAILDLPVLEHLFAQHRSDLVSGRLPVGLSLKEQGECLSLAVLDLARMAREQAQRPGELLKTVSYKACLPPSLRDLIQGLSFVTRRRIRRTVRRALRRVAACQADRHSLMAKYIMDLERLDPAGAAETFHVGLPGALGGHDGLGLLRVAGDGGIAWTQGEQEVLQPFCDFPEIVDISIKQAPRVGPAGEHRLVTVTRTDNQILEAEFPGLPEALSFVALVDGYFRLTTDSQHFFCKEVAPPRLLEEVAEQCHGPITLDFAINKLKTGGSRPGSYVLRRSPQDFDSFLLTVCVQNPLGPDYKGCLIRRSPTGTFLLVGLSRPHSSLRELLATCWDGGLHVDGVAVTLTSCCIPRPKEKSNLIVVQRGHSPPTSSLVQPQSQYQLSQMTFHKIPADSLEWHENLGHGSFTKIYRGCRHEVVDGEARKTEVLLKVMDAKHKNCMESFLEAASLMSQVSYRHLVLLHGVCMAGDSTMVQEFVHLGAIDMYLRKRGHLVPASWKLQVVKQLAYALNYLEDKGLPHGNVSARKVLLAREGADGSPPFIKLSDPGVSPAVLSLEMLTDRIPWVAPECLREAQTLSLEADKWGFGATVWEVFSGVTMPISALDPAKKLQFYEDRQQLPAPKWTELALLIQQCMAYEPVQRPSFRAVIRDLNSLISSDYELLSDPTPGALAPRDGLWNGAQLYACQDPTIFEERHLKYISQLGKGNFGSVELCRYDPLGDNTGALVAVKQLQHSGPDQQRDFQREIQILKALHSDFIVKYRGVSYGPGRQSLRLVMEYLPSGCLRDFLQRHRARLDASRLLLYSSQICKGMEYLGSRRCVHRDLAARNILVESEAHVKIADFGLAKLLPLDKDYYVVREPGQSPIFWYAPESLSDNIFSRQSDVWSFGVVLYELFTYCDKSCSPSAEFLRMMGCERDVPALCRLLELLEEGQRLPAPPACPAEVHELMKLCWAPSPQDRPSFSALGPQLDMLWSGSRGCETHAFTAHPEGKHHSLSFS

Colo205 cells = assay: Analysis of cell proliferation and viability; format: cell-based; conditions: Homo sapiens, read-out: IC50 value
Protocol: Colo205 cells were seeded in 96 well plates and serially diluted compound was added to the wells in duplicate. Control groups included untreated cells, the compound diluent (0.1% DMSO alone) and culture medium without cells.
To measure proliferation, 3 h prior to the end of the experiment 0.5 μCi of 3H thymidine was added to each well. Cells were then harvested and the incorporated radioactivity counted on a Wallac microplate beta-counter. Cell viability was assessed using Promega CellTiter 96AQ to measure MTS conversion. Dose response curves were calculated using either Prism 3.0 (GraphPad) or SoftMax Pro 4.3.1 LS (Molecular Devices) software.

[1] = COLO 205, Colo205 cells, incubated for 96 hours
[2] = COLO 205, Colo205 cells, incubated for 72 hours

SMILES | Ki (JAK3) [µM] | IC50 (Colo205 cells; [1]) [µM] | IC50 (Colo205 cells; COLO 205, 96 h) [µM] | other results
Cc1cc(Nc2cc(N3CCC3)nc(Sc3ccc(C(=O)Nc4ccc(Cl)cc4)cc3)n2)n[nH]1 [Compound 21] | ≤ 0.01 | > 1 | – | Ki (Aurora-2 (Aurora A)): 0.005 to 0.2 µM; Ki (Aurora-1 (Aurora B)): 0.05 to 2 µM
CCC(=O)Nc1ccc(Sc2nc(Nc3cc(C)n[nH]3)cc(N3CC(O)(C4CC4)C3)n2)cc1 [Compound 85] | 0.01 to 0.5 | ≤ 0.05 | – | IC50 (Colo205 cells; [2]): ≤ 0.03 µM
Cc1cc(Nc2cc(N3CCC3)nc(Sc3ccc(NC(=O)c4ccc(Oc5ccccc5)cc4Cl)cc3)n2)[nH]n1 [Compound 87] | 0.5 to 2 | – | – | Ki (Aurora-2 (Aurora A); read-out: Aurora A kinase Ki value): ≤ 0.001 µM; Ki (Aurora-1 (Aurora B)): ≤ 0.01 µM; IC50 (Colo205 cells; [2]): 0.03 to 0.2 µM
CCC(=O)Nc1ccc(Sc2nc(Nc3cc(C)n[nH]3)cc(N3CC(O)(C4CCCC4)C3)n2)cc1 [Compound 97] | 0.01 to 0.5 | – | > 1 | IC50 (Colo205 cells; COLO 205, 72 h): ≤ 0.03 µM
CCC(=O)Nc1ccc(Sc2nc(Nc3cc(C)n[nH]3)cc(N3CC(O)(C(C)C)C3)n2)cc1 [Compound 99] | ≤ 0.01 | ≤ 0.05 | – | –
CCC(=O)Nc1ccc(Sc2nc(Nc3cc(C)n[nH]3)cc(N3CC(O)(C(C)CC)C3)n2)cc1 (stereo not shown) [Compound 100] | 0.01 to 0.5 | ≤ 0.05 | – | –
CCC(=O)Nc1ccc(Sc2nc(Nc3cc(C4CC4)[nH]n3)cc(N3CC(O)(C4CC4)C3)n2)cc1 [Compound 102] | ≤ 0.01 | – | ≤ 0.05 | –
Cc1cc(Nc2cc(N3CC(O)(C4CC4)C3)nc(Sc3ccc(NC(=O)C4CC4)cc3)n2)n[nH]1 [Compound 103] | 0.01 to 0.5 | – | ≤ 0.05 | IC50 (Colo205 cells; COLO 205, 72 h): 0.03 to 0.2 µM
Cc1cc(Nc2cc(N3CC(O)(C4CC4)C3)nc(Sc3ccc(NC(=O)C4CCCC4)cc3)n2)[nH]n1 [Compound 104] | 0.01 to 0.5 | ≤ 0.05 | – | –
O=C(Nc1ccc(Sc2nc(Nc3cc(C4CC4)[nH]n3)cc(N3CC(O)(C4CC4)C3)n2)cc1)C1CC1 [Compound 105] | ≤ 0.01 | ≤ 0.05 | – | –
Cc1cc(Nc2cc(N3CC(O)(C4CC4)C3)nc(Sc3ccc(NC(=O)C4CC4)cc3F)n2)[nH]n1 [Compound 110] | ≤ 0.01 | ≤ 0.05 | – | –
Cc1cc(Nc2cc(N3CC(O)(C4CC4)C3)nc(Sc3ccc(NC(=O)C4CC4(F)F)cc3)n2)[nH]n1 (stereo not shown) [Compound 113] | ≤ 0.01 | – | – | IC50 (Colo205 cells; [2]): ≤ 0.03 µM
Cc1cc(Nc2cc(N3CC(F)(C4CC4)C3)nc(Sc3ccc(NC(=O)C4CC4)cc3)n2)n[nH]1 [Compound 128] | 0.01 to 0.5 | – | ≤ 0.05 | IC50 (Colo205 cells; COLO 205, 72 h): 0.03 to 0.2 µM
Cc1cc(Nc2cc(N3CC(F)(C4CC4)C3)nc(Sc3ccc(NC(=O)CC(F)(F)F)cc3)n2)[nH]n1 [Compound 135] | ≤ 0.01 | – | ≤ 0.05 | IC50 (Colo205 cells; COLO 205, 72 h): ≤ 0.03 µM
